Consider 39 compounds from patent US20260274807A1 (University of Health Sciences and Pharmacy in St. Louis, priority 2023, published 2026).

Each structure is given as a SMILES string. Where only a bound is given, the exact number is not on record here.

One test deals with T1, ERRγ (Homo sapiens, UniProt P62508).
T1 construct: expressed in transfected cells; host or cells: HEK293
T1 sequence (P62508 1-458): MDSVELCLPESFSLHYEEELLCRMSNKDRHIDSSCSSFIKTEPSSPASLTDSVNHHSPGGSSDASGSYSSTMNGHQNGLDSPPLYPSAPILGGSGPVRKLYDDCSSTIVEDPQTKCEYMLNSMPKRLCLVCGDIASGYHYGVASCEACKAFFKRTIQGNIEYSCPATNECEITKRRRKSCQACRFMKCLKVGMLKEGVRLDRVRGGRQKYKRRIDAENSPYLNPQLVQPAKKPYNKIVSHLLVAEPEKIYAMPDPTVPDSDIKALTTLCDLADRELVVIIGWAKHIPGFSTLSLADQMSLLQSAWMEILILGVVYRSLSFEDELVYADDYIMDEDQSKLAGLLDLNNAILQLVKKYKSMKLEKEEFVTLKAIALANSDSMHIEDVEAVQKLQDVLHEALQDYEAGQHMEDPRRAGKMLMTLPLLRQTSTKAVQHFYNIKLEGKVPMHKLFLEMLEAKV
The test can be described thus: ERRE luciferase reporter assay in HEK293 cells transfected with pcDNA3.1 ERRγ. It is filed as cell-based. Set-up: key to EC50 (ERRγ) μM: * <1 μM; ** 1-5 μM; *** >5 μM; i.a. (inactive). The settings on record: HEK293 cells transfected with ERRE reporter construct and pcDNA3.1 ERRγ; compound for 24 hours; luciferase activity. As for the experimental part:
(§1) HEK293 cells were maintained in Dulbecco's modified Eagles medium (DMEM) supplemented with 10% fetal bovine serum at 37° C. under […]. […] Cells were transfected with ERRE reporter construct and pcDNA3.1 ERRα or ERRγ. Twenty-four-hours post-transfection, the cells were treated with vehicle or compound (various concentrations) for 24 hours (4 wells per dose). Luciferase activity was measured using the One-Glo Tox luciferase reporter assay system (Promega) and EC50s were calculated using GraphPad Prism software.
On the technique in general: In a reporter assay the amount or activity of a reporter protein is the signal.

Another test addresses T2, ERRα (Homo sapiens, UniProt P11474).
T2 construct: expressed in transfected cells; host or cells: HEK293
T2 sequence (P11474 1-423): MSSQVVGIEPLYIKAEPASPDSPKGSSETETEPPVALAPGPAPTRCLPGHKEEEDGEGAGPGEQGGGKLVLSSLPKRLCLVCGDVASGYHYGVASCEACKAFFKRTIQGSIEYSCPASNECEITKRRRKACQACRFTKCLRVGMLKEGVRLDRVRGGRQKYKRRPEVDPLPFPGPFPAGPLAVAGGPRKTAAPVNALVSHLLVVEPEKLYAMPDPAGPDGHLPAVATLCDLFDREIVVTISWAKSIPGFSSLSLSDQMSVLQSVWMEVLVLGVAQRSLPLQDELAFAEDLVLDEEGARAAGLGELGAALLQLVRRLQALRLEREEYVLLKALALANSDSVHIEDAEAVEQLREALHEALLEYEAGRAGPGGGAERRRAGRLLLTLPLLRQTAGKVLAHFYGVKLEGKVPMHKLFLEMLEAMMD
In words: ERRE luciferase reporter assay in HEK293 cells transfected with pcDNA3.1 ERRα. Type of test: cell-based. More on the design: key to EC50 (ERRα) μM: * <1 μM; ** 1-5 μM; *** >5 μM; i.a. (inactive). The settings on record: HEK293 cells transfected with ERRE reporter construct and pcDNA3.1 ERRα; compound for 24 hours; luciferase activity. As for the experimental part: as §1

As for `COc1ccc(-c2nnc(-c3cccc(C(F)(F)F)c3)o2)cc1`, the EC50 (usually the concentration that produces a half-maximal response) on ERRγ was greater than 5000 nM; on ERRα it was 1000 to 5000 nM.
In the same order, the values of `c1ccc(-c2nnc(-c3ccccc3)o2)cc1` [Entry 1] are less than 1000 nM and less than 1000 nM.
With `Clc1ccc(-c2nnc(-c3ccccc3)o2)cc1` [Entry 2], the EC50 at ERRγ and at ERRα was less than 1000 nM in each case.
On to `c1ccc(-c2nnc(-c3cccs3)o2)cc1` [Entry 3], for which the EC50 at ERRγ and on ERRα was less than 1000 nM in each case.
In the case of `Cc1ccc(-c2nnc(-c3ccccc3)o2)cc1` [Entry 4, 2-phenyl-5-(p-tolyl)-1,3,4-oxadiazole], the EC50 at ERRγ and on ERRα was less than 1000 nM in each case.
Take `COc1ccc(-c2nnc(-c3ccc(Br)cc3)o2)cc1` [Entry 5]: the EC50 at ERRγ and at ERRα was less than 1000 nM in each case.
As for `Clc1ccc(-c2nnc(-c3ccc(Cl)cc3)o2)cc1` [Entry 6], the EC50 on ERRγ and on ERRα was less than 1000 nM each time.
In the case of `O=[N+]([O-])c1ccc(-c2nnc(-c3ccccc3)o2)cc1` [Entry 7, 2-(4-nitrophenyl)-5-phenyl-1,3,4-oxadiazole], the EC50 on ERRγ and on ERRα was less than 1000 nM in each case.
Take `Cc1ccccc1-c1nnc(-c2ccccc2)o1` [Entry 8]: the EC50 on ERRγ and at ERRα was less than 1000 nM throughout.
For `Brc1ccc(-c2nnc(-c3ccccc3)o2)cc1` [Entry 9], the concentration for a half-maximal effect (EC50) on ERRγ and at ERRα was less than 1000 nM throughout.
As to `O=[N+]([O-])c1ccc(-c2nnc(-c3ccccc3[N+](=O)[O-])o2)cc1` [Entry 11, 2-(2-nitrophenyl)-5-(4-nitrophenyl)-1,3,4-oxadiazole], the EC50 on ERRγ and on ERRα was 1000 to 5000 nM in each case.
For `O=[N+]([O-])c1ccc(-c2nnc(-c3cccc([N+](=O)[O-])c3)o2)cc1` [Entry 12, 2-(3-nitrophenyl)-5-(4-nitrophenyl)-1,3,4-oxadiazole], the EC50 on ERRγ and at ERRα was 1000 to 5000 nM each time.
Regarding `O=[N+]([O-])c1ccc(-c2nnc(-c3ccc([N+](=O)[O-])cc3)o2)cc1` [Entry 13, 2,5-bis(4-nitrophenyl)-1,3,4-oxadiazole], the EC50 on ERRγ and on ERRα was 1000 to 5000 nM each time.
With `c1ccc(-c2nnc(-c3ccc4ccccc4n3)o2)cc1` [Entry 14, 2-phenyl-5-(quinolin-2-yl)-1,3,4-oxadiazole], the EC50 at ERRγ and at ERRα was greater than 5000 nM throughout.
Regarding `c1ccc(-c2nnc(-c3ccnc4ccccc34)o2)cc1` [Entry 15, 2-phenyl-5-(quinolin-4-yl)-1,3,4-oxadiazole], the “EC50 (ERRγ) μM” value on ERRγ is listed as “i.a”. The “EC50 (ERRα) μM” value at ERRα is “i.a”.
Take `O=[N+]([O-])c1ccccc1Cc1nnc(-c2ccc(C(F)(F)F)cc2)o1` [Entry 16, 2-(2-nitrobenzyl)-5-(4-(trifluoromethyl)phenyl)-1,3,4-oxadiazole]: the EC50 at ERRγ and on ERRα was less than 1000 nM in each case.
Consider `COc1ccc(-c2nnc(-c3ccco3)o2)cc1` [Entry 18, 2-(furan-2-yl)-5-(4-methoxyphenyl)-1,3,4-oxadiazole], for which the EC50 at ERRγ and on ERRα was less than 1000 nM throughout.
On to `COc1ccc(-c2nnc(-c3ccc(C)o3)o2)cc1` [Entry 19, 2-(4-methoxyphenyl)-5-(5-methylfuran-2-yl)-1,3,4-oxadiazole], for which the EC50 on ERRγ and on ERRα was less than 1000 nM throughout.
`COc1ccc(-c2nnc(-c3cccs3)o2)cc1` [Entry 20, 2-(4-methoxyphenyl)-5-(thiophen-2-yl)-1,3,4-oxadiazole]: the EC50 on ERRγ and on ERRα was less than 1000 nM throughout.
Regarding `COc1ccc(-c2nnc(-c3ccc(N(C)C)cc3)o2)cc1` [Entry 21, 4-(5-(4-methoxyphenyl)-1,3,4-oxadiazol-2-yl)-N,N-dimethylaniline], the EC50 at ERRγ and on ERRα was 1000 to 5000 nM throughout.
Regarding `COc1ccc(-c2nnc(-c3ccnc4ccccc34)o2)cc1` [Entry 22, 2-(4-methoxyphenyl)-5-(quinolin-4-yl)-1,3,4-oxadiazole], the EC50 on ERRγ and on ERRα was less than 1000 nM in each case.
With `COc1ccc(-c2nnc(-c3ccc4ccccc4n3)o2)cc1` [Entry 23, 2-(4-methoxyphenyl)-5-(quinolin-2-yl)-1,3,4-oxadiazole], the EC50 on ERRγ and on ERRα was less than 1000 nM throughout.
Turning to `COc1ccc(-c2nnc(-c3ccccn3)o2)cc1` [Entry 24, 2-(4-methoxyphenyl)-5-(pyridin-2-yl)-1,3,4-oxadiazole], the “EC50 (ERRγ) μM” value at ERRγ is on record as “i.a”. For the same compound, the “EC50 (ERRα) μM” value on ERRα is “i.a”.
Take `COc1ccc(-c2nnc(-c3cccc([N+](=O)[O-])c3)o2)cc1` [Entry 26, 2-(4-methoxyphenyl)-5-(3-nitrophenyl)-1,3,4-oxadiazole]: the concentration giving a half-maximal response (EC50) on ERRγ was less than 1000 nM; on ERRα, 1000 to 5000 nM.
The corresponding values for `COc1ccc(-c2nnc(-c3ccccc3Cl)o2)cc1` [Entry 28, 2-(2-chlorophenyl)-5-(4-methoxyphenyl)-1,3,4-oxadiazole] are less than 1000 nM and less than 1000 nM.
Consider `COc1ccc(-c2nnc(-c3cccc(OC)c3)o2)cc1` [Entry 29, 2-(3-methoxyphenyl)-5-(4-methoxyphenyl)-1,3,4-oxadiazole], for which the EC50 at ERRγ and at ERRα was less than 1000 nM throughout.
Consider `COc1ccc(-c2nnc(-c3ccc(OC)cc3)o2)cc1` [Entry 30, 2,5-bis(4-methoxyphenyl)-1,3,4-oxadiazole], for which the EC50 at ERRγ and at ERRα was less than 1000 nM in each case.
Take `Cc1ccc(-c2nnc(-c3ccco3)o2)cc1` [Entry 31, 2-(furan-2-yl)-5-(p-tolyl)-1,3,4-oxadiazole]: the EC50 on ERRγ and on ERRα was less than 1000 nM in each case.
For the compound `Cc1ccc(-c2nnc(-c3ccc(C)o3)o2)cc1` [Entry 32, 2-(5-methylfuran-2-yl)-5-(p-tolyl)-1,3,4-oxadiazole], the EC50 at ERRγ and on ERRα was less than 1000 nM in each case.
Regarding `Cc1ccc(-c2nnc(-c3cccs3)o2)cc1` [Entry 33, 2-(thiophen-2-yl)-5-(p-tolyl)-1,3,4-oxadiazole], the EC50 at ERRγ and on ERRα was less than 1000 nM in each case.
For `Cc1ccc(-c2nnc(-c3ccnc4ccccc34)o2)cc1` [Entry 34, 2-(quinolin-4-yl)-5-(p-tolyl)-1,3,4-oxadiazole], the EC50 at ERRγ and on ERRα was less than 1000 nM throughout.
Consider `Cc1ccc(-c2nnc(-c3ccccn3)o2)cc1` [Entry 36, 2-(pyridin-2-yl)-5-(p-tolyl)-1,3,4-oxadiazole], for which the concentration giving a half-maximal response (EC50) on ERRγ and at ERRα was less than 1000 nM throughout.
Consider `Cc1ccc(-c2nnc(-c3ccccc3[N+](=O)[O-])o2)cc1` [Entry 37, 2-(2-nitrophenyl)-5-(p-tolyl)-1,3,4-oxadiazole], for which the EC50 on ERRγ and on ERRα was less than 1000 nM each time.
For `Cc1ccc(-c2nnc(-c3cccc([N+](=O)[O-])c3)o2)cc1` [Entry 38, 2-(3-nitrophenyl)-5-(p-tolyl)-1,3,4-oxadiazole], the concentration for a half-maximal effect (EC50) at ERRγ and on ERRα was less than 1000 nM in each case.
On to `Cc1ccc(-c2nnc(-c3ccc([N+](=O)[O-])cc3)o2)cc1` [Entry 39, 2-(4-nitrophenyl)-5-(p-tolyl)-1,3,4-oxadiazole], for which the EC50 on ERRγ and on ERRα was less than 1000 nM each time.
In the case of `Cc1ccc(-c2nnc(-c3ccccc3Cl)o2)cc1` [Entry 40, 2-(2-chlorophenyl)-5-(p-tolyl)-1,3,4-oxadiazole], the EC50 on ERRγ and at ERRα was less than 1000 nM in each case.
With `COc1cccc(-c2nnc(-c3ccc(C)cc3)o2)c1` [Entry 41, 2-(3-methoxyphenyl)-5-(p-tolyl)-1,3,4-oxadiazole], the EC50 on ERRγ and at ERRα was less than 1000 nM throughout.
Regarding `COc1ccc(-c2nnc(-c3ccc(C)cc3)o2)cc1` [Entry 42, 2-(4-methoxyphenyl)-5-(p-tolyl)-1,3,4-oxadiazole], the 50% effective concentration (EC50) at ERRγ and on ERRα was less than 1000 nM throughout.
On ERRγ, `O=[N+]([O-])c1ccc(-c2nnc(-c3cccc(C(F)(F)F)c3)o2)cc1` [Entry 64, 2-(4-nitrophenyl)-5-(3-(trifluoromethyl)phenyl)-1,3,4-oxadiazole] returned an EC50 greater than 5000 nM.
